Laboratory results from US8431581B2, “Imidazopyrimidines and uses thereof” (priority 2008, dated 2013).

What was measured:
[1] = target: T1, HIV integrase WT (Human immunodeficiency virus type 1 group M subtype B, UniProt P12497); assay: Strand transfer assay (enzyme assay), wild type; assay type: biochemical, HIV-1
T1 construct: The integrase coding region was then subject to PCR and cloned into a bacterial expression vector; made in house
Excerpt: (§1) HIV integrase was mutated within a shuttle vector (pGEMNLHE) containing the majority of the HIV-1 gag and pol sequence using site directed mutagenesis to generate integrase sequences that have been published as conferring resistance to published integrase inhibitors. These include, but are not limited to, mutations such as Q148K, Q148H/G140S and N155H/E92Q. The integrase coding region was then subject to PCR and cloned into a bacterial expression vector. The specific introduction of desired mutation(s) was confirmed by sequence analysis. Proteins were expressed, purified and used in strand transfer assays.
(§2) A strand transfer assay procedure similar to that published (Ovenden et al. Phytochemistry. 2004 December; 65(24):3255-9.) is used. Briefly, 400 ng of the enzyme, wild type or drug resistant mutant, is mixed with the compound to be tested and incubated with 30 nM substrate DNA. The substrate DNA is designed to mimic HIV DNA termini that has undergone 3′ end processing, and consists of the annealed U5 LTR sequence oligonucleotides tagged with Digoxigenin (DIG; 5′-[…]-DIG-3′) or biotin (5′-Bio-[…]-3′) so that each substrate has either a DIG or Bio tag on opposite strands. Reactions are carried out for 1 hr at 37° C. Products generated as a result of strand transfer activity are bound to streptavidin plates and detected using anti-DIG-alkaline phosphatase conjugate and p-nitro phenyl phosphate substrate.
(§3) Both the Phenosense assay and the Enzyme assay give substantially the same activity values for any particular compound and enzyme pair. The activity of one compound in one assay can therefore be directly compared to the activity of a second compound in the other assay.

[2] = system: HIV variant Y143R integrase; assay: Phenosense (PhenoScreen) assay, Y143R variant; assay type: cell-based; conditions: Human immunodeficiency virus 1, read-out: Phenosense assay Y143R activity value
Excerpt: (§4) Monogram Bioscience' PhenoScreen assay allows the evaluation of integrase inhibitors for activity against a variety of HIV variants. The assay uses virus generated from 2 DNA constructs; one containing the HIV LTR, gag and pol regions, as well as a luciferase reporter gene in place of the viral envelope genes, and a second DNA construct containing the amphotrophic murine leukemia virus (A-MLV) envelope gene required to pseudotype virions and render them capable of entry into a target cell. Viruses generated using these constructs by transfection into a producer cell line such as 293T are capable of one-round of infection only. Successful integration events are directly proportional to the levels of luciferase expression 48-72 h after infection.
(§5) The viral variants chosen by Avexa Ltd. to screen their in-house integration inhibitors against consist of mutations within the viral integrase enzyme known to confer resistance to a number of known integration inhibitors published in the literature. In particular, the viral variants containing the Q148H/G140S double mutation in integrase, and the N155H/E92Q double mutation in integrase, represent two of the more common viruses identified to arise in patients that are failing treatment with Isentress (Raltegravir, MK-0518).
as §3

[3] = system: HIV variant G140S Q148H integrase; assay: Phenosense (PhenoScreen) assay, G140S Q148H variant; assay type: cell-based; conditions: Human immunodeficiency virus 1, read-out: Phenosense assay G140S Q148H activity value
Excerpt: as §4, §5, §3

[4] = system: HIV variant T661 S153Y integrase; assay: Phenosense (PhenoScreen) assay, T661 S153Y variant; assay type: cell-based; conditions: Human immunodeficiency virus 1, read-out: Phenosense assay T661 S153Y activity value
Excerpt: as §4, §5, §3

[5] = system: HIV WT integrase; assay: Phenosense (PhenoScreen) assay, wild type virus; assay type: cell-based; conditions: Human immunodeficiency virus 1, read-out: Phenosense assay WT activity value
Excerpt: as §4, §5, §3

[6] = system: HIV variant E92Q N155H integrase; assay: Phenosense (PhenoScreen) assay, E92Q N155H variant; assay type: cell-based; conditions: Human immunodeficiency virus 1, read-out: Phenosense assay E92Q N155H activity value
Excerpt: as §4, §5, §3

[7] = system: HIV variant T125K F121Y integrase; assay: Phenosense (PhenoScreen) assay, T125K F121Y variant; assay type: cell-based; conditions: Human immunodeficiency virus 1, read-out: Phenosense assay T125K F121Y activity value
Excerpt: as §4, §5, §3

[8] = target: T2, HIV integrase E92Q/N155H (Human immunodeficiency virus type 1 group M subtype B, UniProt P12497, E1239Q/N1302H); assay: Strand transfer assay (enzyme assay), E92Q/N155H mutant; assay type: biochemical, HIV-1
T2 construct: The integrase coding region was then subject to PCR and cloned into a bacterial expression vector; made in house
Excerpt: as §1, §2, §3

[9] = target: T3, HIV integrase G140S/Q148H (Human immunodeficiency virus type 1 group M subtype B, UniProt P12497, G1287S/Q1295H); assay: Strand transfer assay (enzyme assay), G140S/Q148H mutant; assay type: biochemical, HIV-1
T3 construct: The integrase coding region was then subject to PCR and cloned into a bacterial expression vector; made in house
Excerpt: as §1, §2, §3

[10] = system: HIV-1 reporter virus, wild-type (WT) integrase; assay: Luciferase reporter virus infectivity assay, WT; assay type: cell-based; conditions: Human immunodeficiency virus 1, HEK-293T, 48 h, read-out: Luciferase assay results WT (EC50)
Excerpt: (§6) Infectivity assays using reporter viruses derived from lentiviral vectors capable of a single round of infection were used to determine the activity (EC50) of compounds. The DNA used to generate viruses for infection was the full-length HIV-1 genome which had been envelope-deleted. In addition, a reporter gene (the firefly luciferase gene from Photinus pyralis) was cloned into the nef region of the HIV backbone for ease of assay readout. […]. Culture supernatants containing VSV-G pseudotyped virions were harvested 64 h post transfection, clarified by centrifugation to remove cell debris, and frozen at −70° C. until use.
(§7) HIV integrase was mutated within a shuttle vector (pGEM) containing the majority of the HIV-1 gag and pol sequence using site-directed mutagenesis to generate sequences that are known to confer resistance to published integrase inhibitors. These include but are not limited to mutations such as Q148H/G140S (in tables 2 and 3 # QHGS), N155H/E92Q (in table 2 # NHEQ), F121Y/T124K (in table 2 FYTK), Y143R (in table 2 # Y143R) and the triple mutant Q148K/G140A/E138A. (in table 2 # QKGAEA). The mutated integrase coding region within the shuttle vector was sequence verified, and then exchanged for the wild-type (WT) coding sequence in the reporter virus DNA backbone.
(§8) 293T cells were plated out at 12000 cells per well in CellView 96-well cell culture plates (Invitrogen) 16 h prior to compound addition. Compounds were preincubated with cells for 4 h at 37° C. prior to the addition of virus sufficient to generate approximately 10000 Luciferase light units (as measured by the Victor Wallace luminometer) upon assaying using the Bright-Glo™ reagent (Promega) according to the manufacturer's instructions at 48 h post infection.

[11] = system: HIV-1 reporter virus, integrase Q148H/G140S (QHGS); assay: Luciferase reporter virus infectivity assay, QHGS mutant; assay type: cell-based; conditions: Human immunodeficiency virus 1, HEK-293T, read-out: Luciferase assay results QHGS (EC50)
Excerpt: as §6, §7, §8

[12] = system: HIV-1 reporter virus, integrase N155H/E92Q (NHEQ); assay: Luciferase reporter virus infectivity assay, NHEQ mutant; assay type: cell-based; conditions: Human immunodeficiency virus 1, HEK-293T, read-out: Luciferase assay results NHEQ (EC50)
Excerpt: as §6, §7, §8

SMILES	IC50 [1]	IC50 [8]	IC50 [9]	EC50 [10]	EC50 [11]	other results
O=C(Cn1ccn2c(=O)c(O)c(-c3ncc(Cc4ccc(F)cc4)o3)nc12)N1CCCCC1	1 to 100 nM					EC50 [2]: 100 to 1000 nM; EC50 [3]: 1000 to 10000 nM; EC50 [4]: 1 to 100 nM; EC50 [5]: 1 to 100 nM; EC50 [6]: 100 to 1000 nM; EC50 [7]: 100 to 1000 nM
Cn1ccn2c(=O)c(O)c(-c3ncc(Cc4ccc(F)cc4)s3)nc12	1 to 100 nM	100 to 1000 nM	1 to 100 nM			
Cn1ccn2c(=O)c(O)c(-c3ncc(Cc4ccc(Cl)cc4)s3)nc12	1 to 100 nM	100 to 1000 nM	100 to 1000 nM			
Cn1ccn2c(=O)c(O)c(-c3ncc(Cc4ccc(Cl)c(Cl)c4)s3)nc12	1 to 100 nM	100 to 1000 nM	100 to 1000 nM			
Cn1ccn2c(=O)c(O)c(-c3ncc(Cc4ccc(F)c(Cl)c4)s3)nc12	1 to 100 nM	100 to 1000 nM	100 to 1000 nM			
Cn1ccn2c(=O)c(O)c(C(=O)NCc3ccc(Cl)c(Cl)c3)nc12	100 to 1000 nM					EC50 [2]: 1 to 100 nM; EC50 [3]: > 10000 nM; EC50 [4]: 100 to 1000 nM; EC50 [5]: 1 to 100 nM; EC50 [6]: > 10000 nM; EC50 [7]: 1000 to 10000 nM
Cn1ccn2c(=O)c(O)c(C(=O)NCc3ccc(F)cc3)nc12	100 to 1000 nM					EC50 [2]: 100 to 1000 nM; EC50 [3]: > 10000 nM; EC50 [4]: 1000 to 10000 nM; EC50 [5]: 100 to 1000 nM; EC50 [6]: > 10000 nM; EC50 [7]: > 10000 nM
C[C@H]1CN(C(=O)Cn2ccn3c(=O)c(O)c(-c4ncc(Cc5ccc(Cl)c(Cl)c5)s4)nc23)C[C@H](C)O1				1 to 100 nM	100 to 1000 nM	
O=C(Cn1ccn2c(=O)c(O)c(-c3ncc(Cc4ccc(F)cc4)s3)nc12)N1CCCCC1				1 to 100 nM	> 1000 nM	
C[C@H]1CN(C(=O)Cn2ccn3c(=O)c(O)c(-c4ncc(Cc5ccc(F)c(Cl)c5)s4)nc23)C[C@H](C)O1				100 to 1000 nM	100 to 1000 nM	EC50 [12]: 100 to 1000 nM
CN1CCN(C(=O)Cn2ccn3c(=O)c(O)c(-c4ncc(Cc5ccc(F)cc5)s4)nc23)CC1				100 to 1000 nM	> 1000 nM	EC50 [12]: 100 to 1000 nM
C[C@H]1CN(C(=O)Cn2ccn3c(=O)c(O)c(-c4ncc(Cc5ccc(F)cc5)s4)nc23)C[C@H](C)O1 [drawing 254]				1 to 100 nM	100 to 1000 nM	EC50 [12]: 100 to 1000 nM
